A value given as a limit tells only on which side of the number the result lay.

For orientation: melting point means the temperature of the solid-liquid transition.

For the compound `CN(C)c1ccc(C(=O)N2CCC(Nc3nc(Nc4cccc(C(F)(F)F)c4)nc(OCC(F)(F)F)n3)CC2)cc1`, the melting point fell in the range of 123 to 125 °C.

As for `C=CC(C)c1cc(C)c2c(c1O)C(N(C)C=O)C1CCCCC21` (stereo not drawn), the melting point was 158 to 159 °C. With `C=C(C)OC(=O)N1c2ccc(C)cc2NC(=O)C1(C)C` the figure was 185 °C; with `OC[C@H]1CCCN1c1cc(N2CCc3ccccc3C2)c2ccccc2n1`, 74 to 80 °C. Regarding `CCN1CCN(CCCC#Cc2cn(Cc3ncc(C)c(OC)c3C)c3nc(N)nc(Cl)c23)CC1`, the melting point lay within 142 to 144 °C. With `CC(C)(C)C1=C(C#N)C(c2ccccc2Cl)c2c[nH]nc2N1` (stereo not drawn) the figure was 198 °C; with `O=CNc1ccc2c(c1)C(=O)CCC2`, 137 to 138 °C.

For the compound `O=[N+]([O-])c1cccc2[nH]c3c(c12)CCCCCC3`, the melting point lay within 189 to 191 °C. With `Nc1nc(CN2CCN(C(c3ccccc3)c3ccccc3)CC2)cs1` the figure was 156 to 160 °C; with `Cc1cc2cccc(N)c2cn1`, 175 °C. `Cn1c(-c2cnc(-c3ccccc3)nc2)cnc1-c1ccccc1` came in with a melting point of 211 °C. The compound `COC(=O)CCCCCCCCOC1OC(CO)C(O)C(OC2OC(CO)C(O)C(O)C2OC2OC(C)C(O)C(O)C2O)C1NC(C)=O` (stereo not drawn) had a melting point of 195 °C.

As to `CCC(C)C(C)C(=O)Nc1ccc2c(C)cn3c(=O)c(C(=O)NCCN4CCN(C(c5ccccc5)c5ccccc5)CC4)cnc3c2c1` (stereo not drawn), the melting point lay within 226 to 230 °C. With `CS(=O)(=O)NCCN1CCC(CO)CC1` the figure was 81 to 82 °C; with `COc1cc2c(cc1OCc1ccccc1)[C@H](CO)OC2=O`, 126 to 128 °C.

On to `Cc1ncc2cc(-c3c(Cl)cccc3Cl)c(NC(=O)N(C)C)nc2n1`, for which the melting point is 177 to 181 °C. With `N#CCNC(=O)c1ccnc(Cl)c1` the figure was 131 to 132 °C; with `CC(=O)c1ccc(N2CCN(C)CC2)cc1`, 97 to 99 °C. The compound `N#CCc1ccccc1Sc1ccc(Cl)c(C(F)(F)F)c1` displayed a melting point of 69 to 70 °C. With `O=C(O)C(c1ccc(F)cc1)N1C(=O)c2ccccc2C1=O` (stereo not drawn) the figure was 174 to 180 °C. With `CCN(CC)C(=O)C=Cc1ccc(Cl)c(Cl)c1` the figure was 60.7 °C; with `CC(C)C(C(=O)Nc1n[nH]c(=S)s1)N(C(=O)OCc1ccccc1)c1ccccc1F` (stereo not drawn), 148 °C; with `CSc1cc(Nc2cccc(C)c2)c(S(=O)(=O)NC(C)(C)C)cn1`, 178 °C.

`Cc1[nH]cc2c(=O)n(-c3ccc(F)cc3)nc-2c1-c1ccccc1`: the melting point was in the range of 303 to 317 °C. With `O=c1[nH]c(=O)n(C2CC(F)C(CO)O2)cc1CO` (stereo not drawn) the figure was 184 °C; with `Clc1cccc(-c2ccc3nncn3n2)c1`, 175 to 177 °C. With `CCCCCCCCOc1ccc(-c2ccc(-c3ccc4c(c3)C(CC)(CC)c3cc(-c5ccc(-c6ccc(OCCCCCCCC)cc6)cc5)ccc3-4)cc2)cc1` the figure was 146 °C.

For `O=C(NCc1ccc(Cl)cc1)c1cnc2c(F)cc(/C=C\CO)cc2c1O`, the melting point lay within 234 to 235 °C.

Take `O=C(NC/C=C\COc1cc(CN2CCCC2)ccn1)c1ccc[nH]1`: the melting point lay within 124 to 127 °C. With `O=C(/C=C/c1ccc(F)cc1)c1cnc2sc3c(n12)CCCCC3` the figure was 187 to 188 °C; with `COC(=C1NC(=O)C(=NO)C1=O)c1ccccc1`, 174 °C; with `Cc1cc([N+](=O)[O-])cc2c1OCC2`, 80 to 81 °C.

For `CCCCNC(=O)c1cccc(S(=O)(=O)NC(=O)c2ccc(C(=O)NCC(=O)OC)nc2)c1`, the melting point was 198 to 200 °C.

`CCCCCCC(=O)N[C@H](CCC(=O)O)C(=O)O`: the melting point fell in the range of 92 to 96 °C. `Cc1oc(-c2ccccc2)nc1CCOc1ccc(C(=O)O)c(O)c1`: the melting point fell in the range of 192 to 194 °C. As for `Cc1ncc(-c2ccccc2)c(-c2ccc3c(c2)NC(=O)CO3)n1`, the melting point was 229 °C. With `CS(=O)(=O)Nc1cc2occ(-c3cscn3)c(=O)c2cc1Oc1ccccc1` the figure was > 250 °C; with `COc1cc(C(C)C)c2c(c1)S(=O)(=O)N(COc1cc(C(F)(F)F)nn1-c1cccc(C(F)(F)F)n1)C2=O`, 149 to 150 °C; with `Cc1cc(Br)ccc1NC(=O)c1cc([N+](=O)[O-])ccc1NC(=O)CF`, 247 to 249 °C. With `OCCc1nccn1CCCCc1ccc(OCc2coc(/C=C/c3ccc(Br)cc3)n2)cc1` the figure was 149 to 150 °C; with `COc1cc2c(c3c1OC(C)(C)C3)C(c1cccc(NC(=O)CS(C)=O)c1)=NC(C)(C)C2` (stereo not drawn), 198 to 201 °C. With `OCC1OC(n2cnc3c(NCCc4cn(Cc5ccc(Cl)cc5)c5ccccc45)ncnc32)C(O)C1O` (stereo not drawn) the figure was 181 °C; with `O=C(CCC1CCN(Cc2ccccc2)CC1)c1cc2c3c(c1)CCN3C(=O)CC2`, 103 to 104 °C. `O=c1[nH]ncc2[nH]c(-c3ccc(OC(F)F)c(OC4CC4)c3)c(Cc3ccc(F)cc3)c12` had a melting point of 193 to 195 °C. For `CCCNC(=O)c1cnc2c(c1O)CN(C(=O)OCC)CC2`, the melting point fell in the range of 199 to 201 °C.

`CC(C)Oc1ccc(/C=C(\NC(=O)c2ccc(OCCc3ccc4ccccc4c3)cc2)C(=O)NCCO)cc1` showed a melting point of 78 to 79 °C. In the case of `O=C(N1CCC(c2nc(-c3c(Cl)cccc3Cl)no2)CC1)N1CCCc2ccccc21`, the melting point lay within 63 to 68 °C. With `Oc1ccc2nc(-c3ccc(C45CC6CC(CC(C6)C4)C5)c(O)c3)[nH]c2c1` the figure was 250 to 252 °C; with `O=C(Nc1ccc2ccc(Oc3ccccc3)nc2n1)c1ccoc1`, 102 °C. With `N#CSc1ccc(N)c(C(F)(F)F)c1` the figure was 52 to 55 °C; with `CN1CCN(c2cccc3c2C[C@H](NC(=O)c2csc(-c4ccccc4)n2)CC3)CC1`, 175 to 176 °C.

Regarding `COc1nn(-c2ccnc(N[C@H]3CC[C@H](O)CC3)n2)c2ccccc12`, the melting point lay within 202 to 205 °C.

Consider `COc1cc(OC)c(C(C)=O)c(O)c1OC`, for which the melting point is 114 to 116 °C.

`Cc1ccccc1N1CCN(C(=O)c2ccc3n2Cc2ccccc2N(C(=O)c2ccc(C4CCCCC4)cc2)C3)CC1` gave a melting point of 141 to 143 °C. With `O=C(Nc1cccc2[nH]ccc12)c1ccccc1OCC1CO1` (stereo not drawn) the figure was 171 °C. The compound `NNCc1ccccc1S(=O)(=O)O` registered a melting point of 257 to 262 °C. `CCOc1cc(N(CC)CC)ccc1C(=O)c1nc2ccccc2nc1C(=O)O` showed a melting point of 175 to 176 °C. With `OCc1c(C(F)(F)F)[nH]c2ccccc12` the figure was 106 °C; with `CCc1nccn1-c1ccc(NC(=O)NC)cc1`, 228 to 232 °C; with `O=Cc1cnn(-c2cccc(C(F)(F)F)c2)c1`, 80 to 82 °C. With `N#CCC1=C(n2nc(-c3c(-c4ccccc4)nn4ccccc34)ccc2=O)CCCC1` the figure was 74 to 76 °C; with `O=[N+]([O-])C1=C2N(Cc3ccc(Cl)nc3)CCCN2C2CCC1O2` (stereo not drawn), 143 to 145 °C; with `COCCCn1c(C=O)c(Br)c2c3c(c(-c4ccccc4Cl)cc21)C(=O)NC3=O`, 206 to 207 °C.

The values above are taken from a melting point compilation (Tetko et al.; mined from patent text by program, amines drawn as free bases though some values may be those of a salt).
